According to patent US20170173106A1, “Polypeptide Fragments of 168A-T2 and Compositions Comprising Them for Use in Treating Cancer” (GENE SIGNAL INTERNATIONAL SA, priority 2014, published 2017):
Like-named read-outs stand apart in the source and are kept apart here. Ends that are not written are not given here.

How the values were obtained:
endostatin = experiment: Endostatin production by HUVECs (ELISA); format: cell-based, human; conditions: inhibitor of MMPs GM6001 alone; FIG. 16
Protocol: HUVECs were transfected with siRNA using transfecting agent GENJET according to the manufacturer's instructions. After 48 hrs of incubation, supernatants were collected, protein expression tested by western blots and endostatin quantified.
Endostatin levels were quantified by ELISAs on lysates of HUVECs incubated at rising concentrations of P3 or PCT for 48 hrs.
In order to evaluate the role of metalloproteinases (MMPs) in endostatin production, a polyvalent inhibitor of MMPs, GM6001 was used. The concentration of endostatin in supernatants is at 6.2 ng/mg of protein of the lysates/48 hrs. […] GM6001 inhibits endostatin production induced by P3. MMPs might then be implicated in endostatin production induced by P3.
HUVECs were incubated for 48 hrs in an EGM2-MV media with an anti-CD151 antibody (11G5a) or an irrelevant antibody (negative control unable to recognize any protein). Then endostatin levels were measured by ELISA in supernatants.
HUVECs cells were transfected with specific siRNA of CD151 and CD9. Protein expression was analyzed in western blots. In parallel, endostatin levels were measured by ELISA in supernatants. […] Levels of endostatin in supernatant of HUVECs cells transfected with siRNA were measured. […] On the contrary, levels of endostatin increased at 9.4 ng/mg of protein lysates/48 hrs in HUVECs depleted in CD151 (FIG. 18B). CD151 is thus involved in the production of endostatin.

Calu-6 cells = experiment: Tumor volume in vivo, Calu-6 xenograft; design: species or system mice; conditions: CDDP alone 5 mg/kg i.p. every other day for 16 days
Protocol: All experiments were reviewed by Genopole's institutional animal care and use committee, and performed in accordance with institutional guidelines for animal care. Female BALB/c nu/nu mice (n=24) were used at 5-6 weeks of age. The animals were housed in laminar air-flow cabinets under pathogen-free conditions with a 14 hrs light/10 hrs dark schedule, and fed autoclaved standard chow and water ad libitum. Calu-6 cells (5×10^6 cells in 200 μl of serum-free RPMI) were subcutaneously injected into the right flank of mice. After engraftment (10 days), tumor volume (TV) was measured (Balsari et al, Eur J Cancer. 2004 May; 40(8):1275-81) and animals were randomized and separated into four groups of six animals each, to be treated by i.p. injection (200 μl per injection) every other day for 16 days (eight injections). Control mice (group 1) received the vehicle (0.9% saline). […] Pegylated peptide 4 (P4-PEG) was dissolved in vehicle at 1 mg/ml and injected at a dose of 10 mg/kg (group 3). In group 4, mice received both CDDP and P4-PEG. Tumor volume and body weight were measured every other day over the treatment period (16 days).

NCI-H460 cells = conditions: 13 days; for average tumoral volume: Example 6, n=5
Protocol: (§3) Swiss nu/nu female mice aged 5-6 weeks were anesthetized with xylazine (12 mg/kg) and ketamine (80 mg/kg). Tumor cells (NCI-H460 or UMUC-3) were implanted sub-cutanously in the mice flanks. […] Tumor sizes were measured and tumor volume was calculated. Mice were weighted to detect symptoms of pain.
Evaluating the effect of the peptides on tumor growth in vivo was performed. Cancer cells NCI-H460 were injected by sub-cutaneous administration in the Swiss-nu/nu mice flanks (n=20). 10 days following inoculation of tumor cells, mice were randomized in 2 groups of 5 mice. Mice of different groups were treated as follow: mice of group 1 were treated with solvent (200 μL/injection/48 hrs); mice of group 2 were treated with P3 (200 μL of 1 mg/mL of P3 in the solvent/injection/48 hrs). All the treatments were performed by intraperitoneal injection for 13 successive days.
The inoculation of NCI-H460 cells (tumoral volume of 100 to 150 mm^3), mice (n=35) were randomized in 7 groups comprising 5 mice each. […] All the treatments were performed by intraperitoneal injection for 13 successive days.

UMUC-3 cells = experiment: Tumor growth test in vivo, UMUC-3 xenograft (no CD9P-1 expression); design: species or system mice; conditions: cisplatin 2.5 mg/kg i.p.; 13 days
Protocol: Tumor sizes were measured and tumor volume was calculated. Mice were weighted to detect symptoms of pain.
The effect of P3 was then tested on the tumor growth in an in vivo model of xenograft of UMUC-3.

[1] = mouse, in vivo
Protocol: as §3
In parallel, to investigate the toxic effect of peptides tested on mice, the mice weights were measured along the treatment.

CD151 [2] = molecular target: T1, CD151 (Homo sapiens, UniProt P48509); experiment: CD151 in lysates of NCI-H460 xenografts (Western blot); format: in vivo, mice; conditions: 10 mg/kg every other day for 13 days
T1 construct: from tissue; host or cells: homogenates of Matrigel implants with NCI-H460 cells, and NCI-H460 xenografts, from Swiss nu/nu mice
T1 sequence (P48509 1-253): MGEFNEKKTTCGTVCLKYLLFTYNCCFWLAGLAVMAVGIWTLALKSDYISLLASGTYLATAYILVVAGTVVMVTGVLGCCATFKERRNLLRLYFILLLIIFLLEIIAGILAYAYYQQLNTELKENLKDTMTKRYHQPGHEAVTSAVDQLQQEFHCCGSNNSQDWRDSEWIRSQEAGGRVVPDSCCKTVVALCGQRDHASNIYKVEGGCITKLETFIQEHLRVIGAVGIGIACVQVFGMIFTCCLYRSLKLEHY
Protocol: (§1) In lysates from xenografts NCI-H460 cells from mice treated for 13 days every other day by P3 or P4 (10 mg/kg), a decrease of CD151 level is observed respectively of 73% and 50% compared to mice treated with the solvent (FIGS. 12A and B). No change in CD9P-1 was observed (FIG. 12A).

HUVECs [3] = experiment: Cellular proliferation test (MTT) on HUVECs; format: cell-based, human; conditions: 48 h
Protocol: Evaluation of cellular proliferation was performed using 4,5-diMethylThiazol-2-yl)-2,5 diphenylTetrazolium bromide (MTT) test. After 18 hrs of culture, the media was changed by EBM2 supplemented with gentamycine and 5% SVF. Different concentrations of peptides were added under a volume of 10 μL/well. Cells were incubated for 48 hrs at 37° C. MTT was added (50 μL/well) to the cells for 3 hrs.
Cells were grown for 48 h in EGM2-MV and proliferation was quantified by MTT assay.

CD151 [4] = experiment: CD151 in homogenates of Matrigel implants enriched with NCI-H460 (Western blot); format: in vivo, mice; conditions: 10 mg/kg for 12 days
Protocol: (§2) Analysis of the expression of CD151 and CD9P-1 were performed on western blots on homogenates of implants of Matrigel® enriched with NCI-H460. CD151 profile is characterized by 2 bands on western blots; one at 28 kDa corresponds to CD151 and another one at 26 kDa corresponding to a degraded product of CD151.

HUVECs [5] = experiment: Capillaries formation by HUVECs on Matrigel; format: cell-based, human; conditions: 6.5 μM, 13 μM and 33 μM, 18 h
Protocol: Evaluating the formation of capillaries on Matrigel® was performed by angiogenesis test in vitro described in Grant et al (1989 Cell 58, 933-943). Matrigel® was dropped down the wells of the 96 well plates and maintained for 30 min at 37° C. for the Matrigel® solidification. HUVECs cells were then seeded and 50 μL, of peptide added.
Plates were then incubated for 18 hrs at 37° C. cells were then washed with calcein solution (50 μL/well at 8 μM) and incubated for 20 min. HUVECs alive metabolize calcein in a green fluorescent component.
Peptides were added to the culture medium (EGM2-MV) at concentrations 6.5 μM, 13 μM and 33 μM after inoculation of cells. Plates were incubated at 37° C. for 18 h. Fluorescence labeling was achieved by addition of calcein. Pictures were shot with a fluorescence microscope equipped with a camera (zoom ×40).

CD9P-1 [6] = molecular target: T2, CD9P-1 (Homo sapiens, UniProt Q9P2B2); experiment: CD9P-1 in lysates of NCI-H460 xenografts (Western blot); format: in vivo, mice; conditions: 10 mg/kg every other day for 13 days
T2 construct: from tissue; host or cells: homogenates of Matrigel implants with NCI-H460 cells, and NCI-H460 xenografts, from Swiss nu/nu mice
T2 sequence (Q9P2B2 26-879): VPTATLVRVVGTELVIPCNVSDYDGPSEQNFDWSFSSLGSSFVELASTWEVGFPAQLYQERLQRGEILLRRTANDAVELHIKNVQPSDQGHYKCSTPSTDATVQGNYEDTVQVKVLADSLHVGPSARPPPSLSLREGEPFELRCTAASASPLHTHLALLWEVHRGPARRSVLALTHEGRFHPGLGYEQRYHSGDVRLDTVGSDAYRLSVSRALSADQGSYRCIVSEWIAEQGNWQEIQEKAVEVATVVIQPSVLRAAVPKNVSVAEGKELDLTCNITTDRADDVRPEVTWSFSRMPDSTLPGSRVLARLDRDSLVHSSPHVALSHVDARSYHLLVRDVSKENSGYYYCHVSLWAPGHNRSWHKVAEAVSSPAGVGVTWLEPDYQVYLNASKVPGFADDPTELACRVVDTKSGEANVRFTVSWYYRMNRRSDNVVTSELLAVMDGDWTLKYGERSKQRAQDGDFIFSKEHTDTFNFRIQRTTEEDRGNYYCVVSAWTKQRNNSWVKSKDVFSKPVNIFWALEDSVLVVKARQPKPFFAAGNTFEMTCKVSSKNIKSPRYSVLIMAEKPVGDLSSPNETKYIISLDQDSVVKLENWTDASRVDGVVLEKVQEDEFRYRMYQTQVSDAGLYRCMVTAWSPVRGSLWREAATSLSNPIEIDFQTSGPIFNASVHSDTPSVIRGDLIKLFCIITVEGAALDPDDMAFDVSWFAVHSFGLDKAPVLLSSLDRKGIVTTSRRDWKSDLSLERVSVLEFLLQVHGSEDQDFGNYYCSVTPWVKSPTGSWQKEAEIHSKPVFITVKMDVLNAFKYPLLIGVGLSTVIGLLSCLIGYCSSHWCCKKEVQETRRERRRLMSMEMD
Protocol: as §1

CD9P-1 [7] = experiment: CD9P-1 in homogenates of Matrigel implants enriched with NCI-H460 (Western blot); format: in vivo, mice; conditions: 10 mg/kg for 12 days
Protocol: as §2

[8] = tested on: Matrigel® implants enriched in NCI-H460 cells; experiment: Angiogenesis test in vivo (Matrigel implants, hemoglobin); design: species or system mice; conditions: 10 mg/kg intraperitoneal daily for 12 days; for color of implants: implants collected day 13
Protocol: Implants of Matrigel® represent an in vivo model of angiogenesis. NCI-H460 cells are used to provide growth factors necessary for blood vessels formation within the Matrigel® matrix. The mixture was then injected sub-cutanously in the Swiis nu/nu mice. Daily treatments with the peptides (1 mg/mL) were performed by injections intraperitoneally. Implants were collected after 12 days.
The dosage of hemoglobin in implants was used as an indicator of the vessels of the implant. The implants were weighted and crushed.
An in vivo model of angiogenesis as described in Passaniti et al. (1992 Experimental gerontology 27, 559-566) was utilized to evaluate the effect of P3 and P4. Briefly, cancer cells were incorporated into Matrigel®, cancer cells provide growth and angiogenic factors necessary for blood vessel formation. The mixture was injected immediately under a sub-cutaneous form of the mice flanks. The day following the inoculation, 20 mice (Swiss nu-nu) were randomized in 4 groups containing 5 mice each and the treatments started as follows: mice of group 1 were treated by 200 μL/injection/day of solvent alone for 12 successive days; mice of group 2 were treated by 200 μL/injection of a P1 solution (1 mg/mL) in a solvent/injection/day for 12 successive days; mice of group 3 were treated by 200 μL of a P3 solution (1 mg/mL) in a solvent/injection/day for 12 successive days; mice of group 4 were treated by 200 μL of a P4 solution (1 mg/mL) in a solvent/injection/day for 12 successive days.

endothelial cells = conditions: results disclosed in WO 2008/138894; cited from earlier work

CNC(=O)[C@H](Cc1c[nH]c2ccccc12)NC(=O)[C@@H](CC(=O)NO)CC(C)C [GM6001]
concentration of endostatin in supernatants (endostatin): 4.4 ng/mg of protein of the lysates/48 hrs | decrease of endostatin compared to the control (endostatin): about 30%

N.N.[Cl][Pt][Cl] [cisplatin, Cis-diammine platinum II dichloride]
tumor volume (Calu-6 cells): significant decrease in tumor volume | average tumoral volume (NCI-H460 cells; cisplatin 2.5 mg/kg i.p.): 1017±119.8 mm^3 | average tumoral volume (NCI-H460 cells; cisplatin alone 5 mg/kg i.p.): 626±118.5 mm^3 | tumors under treatment (UMUC-3 cells): reduced

GNYYCSVTPWVKS [P3]
inhibition of the tumor growth in vivo (NCI-H460 cells; Example 5, P3 200 μL of 1 mg/mL /injection/48 hrs i.p.): 64.79±4.37% | Weight difference between day 1 and day 13 [1]: 10.2 ± 9% | Weighted average of mice after 13 days of the treatment [1]: 24.6 ± 0.4 | Weight difference between day 1 and day 13 ([1]; 10 mg/kg): 6 ± 2% | Weighted average of mice after 13 days of the treatment ([1]; 10 mg/kg): 26.2 ± 2.9 | decrease of CD151 level compared to mice treated with the solvent (CD151 [2]): 73% | inhibition of HUVECs proliferation (HUVECs [3]; 66 μM, n=3): 50%±1.2%

IHSKPVFITVKMDVLNA [P4]
decrease of the band corresponding to CD151 (28 kDa, normalized to GAPDH, vs solvent) (CD151 [4]): 51% | capillary tubes formation (capillaries length and junctions number) (HUVECs [5]): significant decrease of both capillaries length and junctions number | change in CD9P-1 (CD9P-1 [6]): No change | CD9P-1 level (CD9P-1 [7]): does not change | inhibition of hemoglobin amount in implants compared to group 1 (solvent) [8]: 29.2±8.4% | color of implants [8]: yellow color with some red points

VSWFAVHSFGLDKAPVLLSS (Peptide 1) [P1]
effect on HUVECs proliferation (HUVECs [3]): No effect | color of implants [8]: red color

B1: 168A-T2: fragment of the extracellular domain of protein 168A (CD9P-1) (protein)
chain: MAFDVSWFAVHSFGLDKAPVLLSSLDRKGIVTTSRRDWKSDLSLERVSVLEFLLQVHGSEDQDFGNYYCSVTPWVKSPTGSWQKEAEIHSKPVFITVKMDVLNAFKYP
modifications: peptide 168A-T2
potency relative to the anti-VEGF mAb and/or VEGF receptor (KDR)-based identified peptides (endothelial cells): at least 600 fold
